The values that follow come from US20200399222A1, “PICOLINAMIDES AS FUNGICIDES” (Dow AgroSciences LLC, priority 2018, published 2020).

SMILES strings stand for the structures. Where two headings read alike, the source gives them in different places. Where only a bound is given, the exact number is not on record here.

Format in all cases: in vivo
For test [1], the system named is Zymoseptoria tritici. Put plainly: Leaf blotch of wheat (SEPTTR) disease control on wheat seedlings. Particulars: for pest or weed control at 100 ppm: High volume application; for pest or weed control at 121.5 g/ha: Low volume application.
Test [2] concerns Puccinia triticina. Put plainly: Wheat brown rust (PUCCRT) disease control on wheat seedlings. Conditions: for pest or weed control at 100 ppm: High volume application; for pest or weed control at 121.5 g/ha: Low volume application. A digest of the protocol: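 Yuma wheat seedlings (first leaf emerged) sprayed to run-off with compound in acetone plus nine volumes water containing 110 ppm Triton X-100, or track-sprayed as EC formulations with 0.1% Trycol 5941. Rust spores inoculated before or after treatment; overnight dark dew, 22 °C, 100% RH, then greenhouse at 24 °C.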

The subject of test [3] is Phakopsora pachyrhizi. Put plainly: Asian soybean rust (PHAKPA) disease control on soybean seedlings. Conditions: Phakopsora pachyrhizi, High volume application at 25 ppm. A digest of the protocol:
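Compounds in acetone diluted with nine volumes of water containing 0.011% Tween 20, sprayed to run-off on two-week-old Williams 82 soybean seedlings; inoculation 3 days before or 1 day after treatment. Plants held 24 h in dark dew room at 22° C, 100% RH, then at 23° C; disease severity scored on sprayed leaves.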

Where [4] appears, read: 24 h, 1 Day Protectant, read-out: SEPTTR disease control rating, 1DP.
The mark [5] stands for this setting: 72 h, 3 Day Curative, read-out: SEPTTR disease control rating, 3DC.
Where [6] appears, read: 24 h, 1 Day Protectant, read-out: PUCCRT disease control rating, 1DP.
The mark [7] stands for this setting: 72 h, 3 Day Curative, read-out: PUCCRT disease control rating, 3DC.
The mark [8] stands for this setting: 24 h, 1 day protectant, read-out: PHAKPA 1DP (1 Day Protectant) disease control.
Setting [9] is: 72 h, 3 day curative, read-out: PHAKPA 3DC (3 Day Curative) disease control.

Regarding `COc1cc[n+]([O-])c(C(=O)N[C@@H](C)C(=O)O[C@@H](C)[C@@H](C)c2ccccc2)c1O` [Example 276], the pest or weed control at 100 ppm in test [1] (setting [4]) is less than 80%; in test [1] (setting [5]), less than 80%; in test [2] (setting [6]) it was more than 80%; in test [2] (setting [7]), less than 80%. Moreover, the pest or weed control at 121.5 g/ha in test [1] (setting [4]), in test [1] (setting [5]), in test [2] (setting [6]) and in test [2] (setting [7]) was less than 80% in each case. Also, the pest or weed control at 25 ppm in test [3] (setting [8]) is less than 0%; in test [3] (setting [9]), less than 80%.
For `COc1ccc([C@@H](C)[C@@H](C)OC(=O)[C@H](C)NC(=O)c2nccc(OC)c2OCOC(C)=O)c(C)c1` [Example 233], the pest or weed control at 121.5 g/ha in test [1] (setting [4]) was less than 80%; in test [1] (setting [5]), less than 80%; in test [2] (setting [6]) it was more than 80%; in test [2] (setting [7]) it was less than 80%. In addition, the pest or weed control at 25 ppm was more than 80% in test [3] (setting [8]) and less than 80% in test [3] (setting [9]).
For `COc1cc[n+]([O-])c(C(=O)N[C@@H](C)C(=O)O[C@@H](C)[C@@H](C)c2ccccc2C(F)(F)F)c1O` [Example 273], the pest or weed control at 121.5 g/ha in test [1] (setting [4]), in test [1] (setting [5]), in test [2] (setting [6]) and in test [2] (setting [7]) was less than 80% throughout. Further, the pest or weed control at 25 ppm in test [3] (setting [8]) and in test [3] (setting [9]) was less than 80% each time.
For the molecule `COc1ccnc(C(=O)N[C@@H](C)C(=O)O[C@@H](C)[C@@H](C)c2c(C)cc(F)cc2C)c1OC(=O)C(C)C` [Example 238], the pest or weed control at 121.5 g/ha in test [1] (setting [4]) is more than 80%; in test [1] (setting [5]), more than 80%; in test [2] (setting [6]), more than 80%; in test [2] (setting [7]) it was less than 80%. The pest or weed control at 25 ppm in test [3] (setting [8]) and in test [3] (setting [9]) was more than 80% each time.
`COc1ccnc(C(=O)N[C@@H](C)C(=O)OC(C)C(C)c2c(C)cc(F)cc2C)c1OC(=O)C(C)C` (stereo partly drawn) [Example 244]: the pest or weed control at 121.5 g/ha in test [1] (setting [4]) is more than 80%; in test [1] (setting [5]) it was more than 80%; in test [2] (setting [6]) it was more than 80%; in test [2] (setting [7]), less than 80%. Further, the pest or weed control at 25 ppm in test [3] (setting [8]) and in test [3] (setting [9]) was more than 80% in each case.
Regarding `COc1cc[n+]([O-])c(C(=O)N[C@@H](C)C(=O)O[C@@H](C)[C@@H](C)c2ccc(F)cc2C(F)(F)F)c1O` [Example 274], the pest or weed control at 121.5 g/ha in test [1] (setting [4]), in test [1] (setting [5]), in test [2] (setting [6]) and in test [2] (setting [7]) was less than 80% each time. The pest or weed control at 25 ppm in test [3] (setting [8]) and in test [3] (setting [9]) was less than 80% in each case.
Regarding `COc1ccnc(C(=O)N[C@@H](C)C(=O)O[C@@H](C)[C@@H](C)c2ccccc2C)c1O` [Example 175], the pest or weed control at 100 ppm was less than 80% in test [1] (setting [4]), less than 80% in test [1] (setting [5]), more than 80% in test [2] (setting [6]) and more than 80% in test [2] (setting [7]). Moreover, the pest or weed control at 25 ppm in test [3] (setting [8]) and in test [3] (setting [9]) was more than 80% in each case.
Consider `COc1ccnc(C(=O)N[C@@H](C)C(=O)O[C@@H](C)[C@@H](C)c2ccc(C)cc2C)c1OC(=O)C(C)C` [Example 179], for which the pest or weed control at 121.5 g/ha in test [1] (setting [4]) was less than 80%; in test [1] (setting [5]), less than 80%; in test [2] (setting [6]) it was more than 80%; in test [2] (setting [7]), more than 80%. Further, the pest or weed control at 25 ppm in test [3] (setting [8]) and in test [3] (setting [9]) was more than 80% each time.
Consider `COc1ccnc(C(=O)N[C@@H](C)C(=O)OC(C)C(C)c2c(C)cccc2C)c1OC(C)=O` (stereo partly drawn) [Example 255], for which the pest or weed control at 121.5 g/ha is less than 80% in test [1] (setting [4]), more than 80% in test [1] (setting [5]), more than 80% in test [2] (setting [6]) and less than 80% in test [2] (setting [7]). Further, the pest or weed control at 25 ppm in test [3] (setting [8]) and in test [3] (setting [9]) was more than 80% in each case.
In the case of `COc1ccnc(C(=O)N[C@@H](C)C(=O)O[C@H](C)[C@H](C)c2ccc(F)cc2C(F)(F)F)c1OC(=O)C(C)C` [Example 240], the pest or weed control at 121.5 g/ha is less than 80% in test [1] (setting [4]), less than 80% in test [1] (setting [5]), less than 0% in test [2] (setting [6]) and less than 0% in test [2] (setting [7]). In addition, the pest or weed control at 25 ppm in test [3] (setting [8]) and in test [3] (setting [9]) was less than 80% throughout.
On to `COc1ccnc(C(=O)N[C@@H](C)C(=O)O[C@@H](C)[C@@H](C)c2ccccc2C)c1OC(=O)C(C)C` [Example 266], for which the pest or weed control at 121.5 g/ha in test [1] (setting [4]), in test [1] (setting [5]), in test [2] (setting [6]) and in test [2] (setting [7]) was less than 80% throughout. Moreover, the pest or weed control at 25 ppm in test [3] (setting [8]) and in test [3] (setting [9]) was more than 80% in each case.
As for `COc1ccnc(C(=O)N[C@@H](C)C(=O)O[C@@H](C)[C@@H](C)c2ccc(F)cc2C(F)(F)F)c1OC(C)=O` [Example 246], the pest or weed control at 121.5 g/ha in test [1] (setting [4]), in test [1] (setting [5]), in test [2] (setting [6]) and in test [2] (setting [7]) was more than 80% each time. Besides, the pest or weed control at 25 ppm in test [3] (setting [8]) and in test [3] (setting [9]) was more than 80% each time.
Consider `COc1cc(F)ccc1[C@@H](C)[C@@H](C)OC(=O)[C@H](C)NC(=O)c1c(O)c(OC)cc[n+]1[O-]` [Example 277], for which the pest or weed control at 100 ppm in test [1] (setting [4]) is less than 80%; in test [1] (setting [5]), less than 80%; in test [2] (setting [6]), less than 80%; in test [2] (setting [7]), less than 0%. The pest or weed control at 121.5 g/ha is less than 80% in test [1] (setting [4]), less than 80% in test [1] (setting [5]), less than 0% in test [2] (setting [6]) and less than 80% in test [2] (setting [7]). The pest or weed control at 25 ppm in test [3] (setting [8]) and in test [3] (setting [9]) was less than 80% throughout.
`COc1cc(F)ccc1[C@@H](C)[C@@H](C)OC(=O)[C@H](C)NC(=O)c1nccc(OC)c1OC(C)=O` [Example 260]: the pest or weed control at 100 ppm is less than 80% in test [1] (setting [4]), less than 80% in test [1] (setting [5]), more than 80% in test [2] (setting [6]) and less than 80% in test [2] (setting [7]). Also, the pest or weed control at 121.5 g/ha in test [1] (setting [4]) is less than 80%; in test [1] (setting [5]) it was less than 0%; in test [2] (setting [6]), less than 0%; in test [2] (setting [7]), less than 0%. Besides, the pest or weed control at 25 ppm in test [3] (setting [8]) was more than 80%; in test [3] (setting [9]) it was less than 80%.
In the case of `COc1ccnc(C(=O)N[C@@H](C)C(=O)O[C@H](C)[C@H](C)c2ccc(F)cc2C(F)(F)F)c1OC(C)=O` [Example 251], the pest or weed control at 121.5 g/ha in test [1] (setting [4]), in test [1] (setting [5]), in test [2] (setting [6]) and in test [2] (setting [7]) was less than 80% throughout. The pest or weed control at 25 ppm was more than 80% in test [3] (setting [8]) and less than 80% in test [3] (setting [9]).
Consider `COc1ccnc(C(=O)N[C@@H](C)C(=O)O[C@@H](C)[C@H](C)c2ccccc2C)c1OCOC(C)=O` [Example 231], for which the pest or weed control at 121.5 g/ha was less than 80% in test [1] (setting [4]), less than 80% in test [1] (setting [5]), more than 80% in test [2] (setting [6]) and less than 80% in test [2] (setting [7]). In addition, the pest or weed control at 25 ppm in test [3] (setting [8]) was less than 80%; in test [3] (setting [9]), less than 0%.
On to `COc1cc[n+]([O-])c(C(=O)N[C@@H](C)C(=O)O[C@@H](C)[C@@H](C)C2CCCC2)c1O` [Example 275], for which the pest or weed control at 121.5 g/ha was less than 0% in test [1] (setting [4]), less than 0% in test [1] (setting [5]), less than 80% in test [2] (setting [6]) and less than 0% in test [2] (setting [7]). The pest or weed control at 25 ppm in test [3] (setting [8]) and in test [3] (setting [9]) was less than 80% throughout.
